Laboratory results reported in PubChem BioAssay (NCI).
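Where inhibition never reached the appropriate level, the endpoint shown equals the highest concentration tested. Otherwise, values were interpolated linearly from a five-concentration, 48-hour dose response in 96-well plates. TGI marks complete inhibition of growth.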

Legend:
Assay in all cases: growth of human tumour cells (NCI), 48 h
[1] = test system: EKVX NSCLC
[2] = test system: UO-31 renal
[3] = test system: A498 renal
[4] = test system: NCI-H522 lung
[5] = test system: A549 NSCLC
[6] = test system: NCI-H226 lung
[7] = test system: NCI-H460 lung
[8] = test system: SF-268 CNS
[9] = test system: HCT-116 colon
[10] = test system: M14 melanoma
[11] = test system: OVCAR-4 ovarian
[12] = test system: HOP-62 NSCLC
[13] = test system: CAKI-1 renal
[14] = test system: SF-295 CNS
[15] = test system: MDA-MB-435
[16] = test system: HL-60(TB) leukemia
[17] = test system: NCI/ADR-RES ovarian
[18] = test system: MCF7 breast
[19] = test system: TK-10 renal
[20] = test system: MDA-MB-231 breast
[21] = test system: K-562 leukemia
[22] = test system: SK-MEL-28 melanoma
[23] = test system: NCI-H23 lung
[24] = test system: SNB-75 CNS
[25] = test system: SW-620 colon
[26] = test system: UACC-257 melanoma
[27] = test system: RPMI-8226 leukemia
[28] = test system: KM12 colon
[29] = test system: HT29 colon
[30] = test system: OVCAR-8 ovarian
[31] = test system: ACHN renal
[32] = test system: OVCAR-3 ovarian
[33] = test system: COLO 205 colon
[34] = test system: IGROV1 ovarian
[35] = test system: U251 CNS
[36] = test system: DU-145 prostate
[37] = test system: SF-539 CNS
[38] = test system: MOLT-4 leukemia
[39] = test system: LOX IMVI melanoma
[40] = test system: SR leukemia
[41] = test system: SN12C renal
[42] = test system: 786-0 renal
[43] = test system: HCC-2998 colon
[44] = test system: T-47D breast
[45] = test system: MDA-N
[46] = test system: SK-MEL-5 melanoma
[47] = test system: UACC-62 melanoma
[48] = test system: CCRF-CEM leukemia
[49] = test system: SK-OV-3 ovarian
[50] = test system: HS 578T breast
[51] = test system: HOP-92 NSCLC
[52] = test system: RXF 393 renal
[53] = test system: OVCAR-5 ovarian
[54] = test system: HCT-15 colon
[55] = test system: MALME-3M melanoma
[56] = test system: SNB-19 CNS
[57] = test system: SK-MEL-2 melanoma
[58] = test system: PC-3 prostate

Measured: TGI

O=C(CC(C(=O)c1ccco1)c1ccsc1)c1ccco1 (stereo not drawn)
not listed: [55] | [56] | [57] | [58]
> 100 µM: all other assays above

[O-][n+]1onc2c1CCC(=N\O)/C2=N/Nc1ccccc1
not listed: [35] | [43] | [44] | [51]
> 100 µM: all other assays above
